# Marks after values point to notes of the source that are not given here.
# Key:
# [1] = Solubility study of crystal form I; type: physicochemical; settings: pH 7.4 phosphate buffer (37°C for 24 hours)
# [2] = Stability to forced degradation (oxidative and alkali); type: physicochemical; settings: 1 mg/mL in 90% acetonitrile
# Method: (§1) The HPLC for solubility and stability is carried out using a Phenomenex Luna C18 (2), 3 µm, 2X50 mm chromatographic column.
# 3 mg of crystal form I was weighed to formulate a stock solution of 1 mg/mL with 3 mL of 90% acetonitrile. Stability subjected to oxidative degradation (degraded with 3% H2O2 at 40°C for 1.5 hours) and alkali degradation (degraded with 0.1 N NaOH at 40°C for 2 hours) was studied.
# [3] = Trituration study of crystal form I (XRPD); type: physicochemical; settings: manual trituration 1 min or 3 min, without solvent, with water or ethanol
# Method: Approximately 50 mg of crystal form I was manually triturated in a mortar using the condition shown in Table 5, and XRPD was carried out to investigate the crystal form of the triturated solid.
# [4] = Solubility study of crystal form I; type: physicochemical; settings: for solubility: thermodynamic from solid
# Method: as §1
# 50 µL or 100 µL of the solvent shown in Table 6 was gradually added to 2 mg of crystal form I, and the resulting mixture was manually shaken, vortexed, or sonicated to dissolve. Addition of solvent was stopped if the concentration was below 1 mg/mL. The solubility was calculated based on the sample amount and the total amount of solvent added.
# [5] = Stability subjected to temperature and humidity (XRPD of crystal form); type: physicochemical; settings: solid powder, 30 days
# Method: The instrument is Shimadzu XRD-6000, and the samples are scanned according to the following parameters: The ray source is Cu~Kα target (1.54056 Å).
# In addition, an appropriate amount of crystal form I solid powder was weighed, and placed under stability conditions (40°C / 75% RH, 60°C / 75% RH) for 30 days. Samples were collected for XRPD.
# [6] = Stability subjected to light (LC analysis); type: physicochemical
# Method: as §1
# An appropriate amount of crystal form I solid powder was weighed, and placed in a light-stabilized chamber to irradiate under ICH light intensity conditions (at least greater than 1.2*10^6 Lux*h, illuminance of 4500±500 Lux, and intensity of 200 w*hr/m^2). Samples were collected for LC study and analysis.
# [7] = Dynamic vapor sorption (DVS); type: physicochemical
# [8] = Stability subjected to temperature and humidity (LC analysis); type: physicochemical; settings: solid powder, 30 days
# Method: as §1
# 1 to 3 mg of crystal form I solid powder was weighed, and placed at 60°C or 60°C / 75% RH for 30 days. Samples were collected for LC study and analysis.
# [9] = Pharmacokinetic study of intragastric administration of suspension; type: in vivo; settings: male SD rats, result in words
# Method: Crystal form I was used in pharmacokinetic studies in rats. Twelve male SD rats were weighed before administration, and housed using standard feeding methods. Animals were housed in standard cages with free access to food and water during the study. Rats were intragastrically administered the suspension of crystal form I. 40 µL of blood was collected at each sampling point, and placed in an EDTA-containing anticoagulant tube. After centrifugation, 20 µL of plasma was collected. All samples were immediately frozen in a -80°C refrigerator after collection.
compound,measurement,setting,value
"COc1cnc(-c2c(OC)ncnc2C2CC2)nc1NCC12CCC(c3nc(C(F)(F)F)cn3C)(CC1)CC2 [crystal form I, 4'-cyclopropyl-5,6'-dimethoxy-N-((4-(1-methyl-4-(trifluoromethyl)-1H-imidazol-2-yl)bicyclo[2.2.2]octan-1-yl)methyl)-[2,5'-bipyrimidin]-4-amine]",solubility at 24 h,"[1]; aqueous buffer, thermodynamic from solid",0.31 mg/mL
same,solubility,[1],0.31 * mg/mL
same,degradation,[2]; alkali degradation: 0.1 NaOH at 40°C for 2 hour,only slight degradation
same,degradation,[2]; oxidative degradation: 3% H2O2 at 40°C for 1.5 hours,only slight degradation
same,crystal form after trituration (XRPD),[3],all crystal form I
same,solubility,"[4]; acetone, organic solvent or mixture",> 34.4 mg/mL
same,solubility,"[4]; acetonitrile, organic solvent or mixture",14.2 to 28.4 mg/mL
same,solubility,"[4]; acetonitrile-water 9:1, organic solvent or mixture",> 32.4 mg/mL
same,solubility,"[4]; ethyl acetate, organic solvent or mixture",14.9 to 29.8 mg/mL
same,solubility,"[4]; methanol, organic solvent or mixture",> 19.2 mg/mL
same,solubility,"[4]; methanol-water 1:1, aqueous with cosolvent or surfactant or cyclodextrin",< 0.895 mg/mL
same,solubility,"[4]; methanol-water 9:1, organic solvent or mixture",> 33.4 mg/mL
same,solubility in organic solvent,"[4]; organic solvent, result in words",good solubility
same,solubility,"[4]; pH 1.2 hydrochloric acid solution, pH 1.2, simulated gastric fluid",8.45 to 16.9 mg/mL
same,crystal form change (XRPD),[5]; 40°C / 75% RH,did not change its crystal form
same,crystal form change (XRPD),[5]; 60°C / 75% RH,did not change its crystal form
same,photostability,"[6]; ICH light conditions, result in words",photostable
same,change of content of the main component,"[6]; solid powder, ICH light intensity conditions (>1.2*10^6 Lux*h, 200 w*hr/m^2)",less than 0.2%
same,hygroscopicity,"[7]; DVS, result in words",non-hygroscopic
same,crystal form after DVS (XRPD),[7]; XRPD before and after DVS,did not change
same,water absorption rate,"[7]; from 0% RH to 95% RH, 25°C",0.02%
same,change of content of the main component,[8]; 60°C / 75% RH,less than 0.2%
same,change of content of the main component,[8]; 60°C,less than 0.2%
same,bioavailability,[9],high
same,exposure,[9],high
same,plasma concentration,[9],high
